The values below come from ChEMBL document CHEMBL1157282, “Cytotoxic constituents from the stem bark of Dichapetalum gelonioides collected in the Philippines” (J Nat Prod, 2006).

In brackets after ≈: the same amount, converted by molar mass. A value given as a limit tells only on which side of the number the result lay.

Data set [1] can be described thus: Cytotoxicity against human BC1 cells. The format is functional. As to conditions: read-out: ED50 (the source's name).
In a further data set the test system is SK-N-SH. Nature of the data set: Cytotoxicity against human SKNSH cells. Type of data set: functional. The conditions noted are these: read-out: ED50 (the source's name).
Another data set has as its system Col2. Nature of the data set: Cytotoxicity against human Col2 cells. The format is functional. The conditions noted are these: read-out: ED50 (the source's name).
A further data set has as its system SW626. Nature of the data set: Cytotoxicity against human SW626 cells. The format is functional. The conditions noted are these: read-out: ED50 (the source's name).
For data set [2], the system named is KB. Nature of the data set: Cytotoxicity against drug-resistant human KB cells in absence of vinblastine. Type of data set: functional. As to conditions: read-out: ED50 (the source's name).
The test system of the next data set is LNCaP. The data set can be described thus: Cytotoxicity against human LNCaP cells. The format is functional. As to conditions: read-out: ED50 (the source's name).
In another data set the test system is Lu1. Nature of the data set: Cytotoxicity against human Lu1 cells. Type of data set: functional. The conditions noted are these: read-out: ED50 (the source's name).
Data set [3] relates to KB. Nature of the data set: Cytotoxicity against drug-resistant human KB cells in presence of vinblastine. The format is functional. The conditions noted are these: read-out: ED50 (the source's name).
For data set [4], the system named is KB. The data set can be described thus: Cytotoxicity against human KB cells. Type of data set: functional. As to conditions: read-out: ED50 (the source's name).
Data set [5] in a line: Cytotoxicity against human MEL1 cells. The format is functional. The conditions noted are these: read-out: ED50 (the source's name).
Data set [6] in a line: Cytotoxicity against human MEL2 cells. The conditions noted are these: read-out: ED50 (the source's name). Type of data set: functional.
Another data set relates to L1210. Nature of the data set: Cytotoxicity against mouse L1210 cells. The format is functional.
A further data set deals with MCF7. The data set can be described thus: Cytotoxicity against human MCF7 cells. The format is functional. The conditions noted are these: read-out: ED50 (the source's name).
Data set [7] can be described thus: Cytotoxicity against HUVEC cells. As to conditions: human, read-out: ED50 (the source's name). Type of data set: cell-based.

One may read the EC90 as the point of the concentration-response curve where the effect stands at 90%. A higher EC90 goes with a need for much substance.

With `C=C1C(=O)C(O)=C[C@@H]2[C@@]3(C)CC[C@](C)(C(=O)OC)C[C@@H]3CC[C@]12C`, the EC50 is 0.6 µg/mL (≈ 1.8 µM) in [1]; 0.8 µg/mL (≈ 2.41 µM) in the data set with SK-N-SH; 0.8 µg/mL (≈ 2.41 µM) in the data set with Col2; 1.6 µg/mL (≈ 4.81 µM) with SW626; 1.8 µg/mL (≈ 5.41 µM) with KB [2]; 0.9 µg/mL (≈ 2.71 µM) in the data set with LNCaP. The EC50 came to 1.6 µg/mL (≈ 4.81 µM) in the data set with Lu1, 1.7 µg/mL in the data set on KB [3] and 0.7 µg/mL (≈ 2.11 µM) in the data set with KB [4].
On to `C[C@H]1C(=O)CC[C@H]2[C@]3(C)CC[C@@]4(C)[C@@H]5CC(C)(C)CC[C@]5(CO)CC[C@]4(C)[C@H]3C[C@@H](O)[C@]12C`, for which the EC50 was greater than 20 µg/mL in data set [1]; 13 µg/mL (≈ 28.3 µM) with SK-N-SH; greater than 20 µg/mL in the data set with Col2; greater than 20 µg/mL in the data set with SW626; greater than 20 µg/mL with KB [2]; greater than 20 µg/mL with LNCaP. Further, the EC50 in the data set on Lu1, with KB [3] and with KB [4] was greater than 20 µg/mL throughout.
Take `C=C1C(=O)C(O)=C[C@@H]2[C@@]3(C)CC[C@](C)(C(=O)O)C[C@@H]3CC[C@]12C`: the EC50 in data set [1] stood at 4 µg/mL (≈ 12.6 µM); in the data set with SK-N-SH, 9 µg/mL (≈ 28.3 µM); with Col2, 2.7 µg/mL (≈ 8.48 µM); in the data set on SW626, 5 µg/mL (≈ 15.7 µM); with KB [2], 5 µg/mL (≈ 15.7 µM); in the data set on LNCaP it was 3.7 µg/mL (≈ 11.6 µM). In addition, the results for the EC50 in the data set with Lu1, in the data set on KB [3] and in the data set with KB [4] were 3.8 µg/mL (≈ 11.9 µM), 4.3 µg/mL and 3.7 µg/mL (≈ 11.6 µM), respectively.
Turning to `CC1=C(O)C(=O)C[C@@H]2[C@@]3(C)CC[C@](C)(C(=O)O)C[C@@H]3CC[C@]12C`, the EC50 in data set [1] was 12.2 µg/mL (≈ 38.1 µM); with SK-N-SH, 10.4 µg/mL (≈ 32.5 µM); with Col2 it was 11.2 µg/mL (≈ 35 µM); with SW626 it was 15.8 µg/mL (≈ 49.3 µM); in the data set with KB [2], greater than 20 µg/mL; in the data set on LNCaP, 10.8 µg/mL (≈ 33.7 µM). Also, the EC50 in the data set with Lu1 is greater than 20 µg/mL; in the data set on KB [3], greater than 20 µg/mL; with KB [4] it was 16.2 µg/mL (≈ 50.6 µM).
Regarding `C=C(C)[C@@H]1CC[C@]2(C(=O)O)CC[C@]3(C)[C@H](CC[C@@H]4[C@@]5(C)CC[C@H](O)C(C)(C)[C@@H]5CC[C@]43C)[C@@H]12` [BETULINIC ACID], the EC50 in [1] was greater than 20 µg/mL; in [5], 1.1 µg/mL (≈ 2.41 µM); with SK-N-SH, greater than 20 µg/mL; with Col2, greater than 20 µg/mL; in the data set with SW626, greater than 20 µg/mL; in data set [6] it was 2 µg/mL (≈ 4.38 µM). Further, the EC50 in the data set with KB [2], in the data set with LNCaP, in the data set with Lu1, with KB [3] and with KB [4] was greater than 20 µg/mL in each case.
As to `C/C(=C\[C@H]1C[C@@H]([C@@H]2CC[C@]34C[C@]23C=C[C@@H]2[C@@]3(C)CC=C5C[C@@H](c6ccccc6)OC[C@]5(C)[C@@H]3C[C@@H](O)[C@]24C)C(=O)O1)CO` [DICHAPETALIN A], the EC50 in data set [1] is greater than 20 µg/mL; in the data set on MCF7, 2.1 µg/mL (≈ 3.59 µM); in the data set with SK-N-SH it was 6.9 µg/mL (≈ 11.8 µM); in the data set on Col2, 6.1 µg/mL (≈ 10.4 µM); with SW626, 0.2 µg/mL (≈ 0.342 µM); with KB [2], greater than 20 µg/mL. In addition, the EC50 came out at 7 µg/mL (≈ 12 µM) in the data set on LNCaP, 4.1 µg/mL (≈ 7.01 µM) in the data set with Lu1, 11.6 µg/mL in the data set on KB [3] and 3.6 µg/mL (≈ 6.16 µM) in the data set on KB [4]. This molecule also displayed an EC90 in the data set with L1210 of less than 0.0001 µg/mL. Besides, in data set [7], the CC50 stood at 5.5 µg/mL (≈ 9.4 µM).
Consider `C/C(=C\[C@H]1C[C@@H]([C@@H]2CC[C@]34C[C@]23[C@H](O)C[C@@H]2[C@@]3(C)CC=C5C[C@@H](c6ccccc6)OC[C@]5(C)[C@@H]3C[C@@H](O)[C@]24C)C(=O)O1)CO` [DICHAPETALIN I], for which the EC50 in [1] is greater than 20 µg/mL; in the data set on SK-N-SH, 9.9 µg/mL (≈ 16.4 µM); in the data set with Col2, 4.1 µg/mL (≈ 6.8 µM); in the data set on SW626 it was 0.5 µg/mL (≈ 0.829 µM); with KB [2] it was greater than 20 µg/mL; in the data set on LNCaP it was greater than 20 µg/mL. Besides, the EC50 was 7.6 µg/mL (≈ 12.6 µM) in the data set on Lu1, greater than 20 µg/mL in the data set with KB [3] and 16.6 µg/mL (≈ 27.5 µM) in the data set with KB [4].
As for `COc1ccc([C@@H]2CC3=CC[C@]4(C)[C@H]5C[C@@H](O)[C@]67C[C@]6(CC[C@H]7[C@@H]6C[C@H](/C=C(\C)CO)OC6=O)[C@]5(C)[C@H](O)C[C@H]4[C@@]3(C)CO2)cc1` [DICHAPETALIN J], the EC50 is greater than 20 µg/mL in data set [1]; 4 µg/mL (≈ 6.32 µM) in the data set with SK-N-SH; 2.1 µg/mL (≈ 3.32 µM) in the data set on Col2; 0.4 µg/mL (≈ 0.632 µM) with SW626; greater than 20 µg/mL with KB [2]; 16.4 µg/mL (≈ 25.9 µM) with LNCaP. Moreover, the EC50 in the data set on Lu1 is 14.5 µg/mL (≈ 22.9 µM); in the data set on KB [3] it was greater than 20 µg/mL; in the data set on KB [4] it was 16.4 µg/mL (≈ 25.9 µM).
Take `COc1ccc([C@@H]2CC3=CC[C@]4(C)[C@H]5C=C[C@]67C[C@]6(CC[C@H]7[C@@H]6C[C@H](/C=C(\C)CO)OC6=O)[C@]5(C)[C@H](O)C[C@H]4[C@@]3(C)CO2)cc1` [DICHAPETALIN K]: the EC50 was 1 µg/mL (≈ 1.63 µM) with MCF7, 3 µg/mL (≈ 4.88 µM) in the data set with SW626, 2.6 µg/mL (≈ 4.23 µM) with LNCaP and 1 µg/mL (≈ 1.63 µM) in the data set on Lu1. In addition, the CC50 in [7] was determined as 2.2 µg/mL (≈ 3.58 µM).
For the molecule `C/C(=C\[C@H]1C[C@@H]([C@@H]2CC[C@]34C[C@]23CC[C@@H]2[C@@]3(C)CC=C5C[C@@H](c6ccccc6)OC[C@]5(C)[C@@H]3C[C@@H](O)[C@]24C)C(=O)O1)CO` [DICHAPETALIN L], the EC50 in the data set with MCF7 was 2.1 µg/mL (≈ 3.58 µM); in the data set with SW626 it was 8.3 µg/mL (≈ 14.1 µM); in the data set with LNCaP, 1.1 µg/mL (≈ 1.87 µM); in the data set with Lu1, 1 µg/mL (≈ 1.7 µM). Moreover, the CC50 in [7] amounted to 4.2 µg/mL (≈ 7.16 µM).
For the molecule `C[C@H]1C(=O)CC[C@H]2[C@]3(C)CC[C@@]4(C)[C@@H]5CC(C)(C)CC[C@]5(C)CC[C@]4(C)[C@H]3C[C@@H](O)[C@]12C` [ZEYLANOL], the EC50 was greater than 20 µg/mL in [1]; 16.8 µg/mL (≈ 37.9 µM) in the data set with SK-N-SH; greater than 20 µg/mL with Col2; greater than 20 µg/mL in the data set on SW626; greater than 20 µg/mL in the data set on KB [2]; 10.9 µg/mL (≈ 24.6 µM) in the data set on Lu1. Also, the EC50 with KB [3] and with KB [4] was greater than 20 µg/mL throughout.
